Reference: US20180072675A1, “ANTIMICROBIAL PYRIDINOHYDRAZIDE AND HYDRAZOMETHYLPYRIDINE-BASED AGENTS” (Board of Supervisors of Louisiana State University and …, priority 2015, published 2018)
In brackets after ≈: the same amount, converted by molar mass. Entries after “also recorded” stand apart in the source; their conditions may differ.

Assays:
[1] = test system: Candida glabrata (ATCC Accession No. 48435); experiment: MIC80 fungal growth inhibition, C. glabrata ATCC 48435; type: cell-based; settings: Azole-resistant, >80% growth inhibition, visual scoring; for MIC80: Nakaseomyces glabratus, ATCC48435, read-out: MIC80 C. glabrata ATCC No. 48435
Procedure: (§1) The antifungal activity of the pyridinohydrazide and hydrazomethylpyridine derivatives described in the s were evaluated in vitro using Candida albicans (ATCC Accession No. 10231) and Candida glabrata (ATCC Accession No. 48435). In addition, the compounds were evaluated for activity against two previously-described clinical isolates of C. albicans known to have developed azole-resistance. These isolates were obtained over a two year period from a single AIDS patient and the development of the azole-resistance mechanisms have been extensively characterized (White T C. Antimicrob. Agents Chemother. (1997) 41: 1482-1487). MIC assays were performed on the clinical isolates 1 and 17 (annotated TW1 and TW17, respectively), where isolate 1 was used as an azole-susceptible control and isolate 17 was considered azole-resistant. All assays were done in accordance with NCCLS reference documents (Clinical Laboratory and Standards Institute. Reference method for Broth Dilution Antifungal Susceptibility Testing of Yeasts: Approved Standard. M27-A3 2010; 28). The results of these screenings are summarized in Tables 1-9 (Examples 20-27) as the minimum concentrations that inhibited more than 80% of fungal growth (MIC80) as compared to positive controls containing 1% DMSO. Assays were performed in HEPES-buffered RPMI-1640 media. All MIC screens used a visual scoring method as opposed to spectroscopic analysis, due to the altered absorbance spectra of many of the compounds.

[2] = test system: C. albicans clinical isolate 1 (TW1); experiment: MIC80 fungal growth inhibition, clinical isolate TW1; type: cell-based, Candida albicans; settings: Azole-susceptible, >80% growth inhibition, visual scoring; for MIC80: Candida albicans, read-out: MIC80 TW1
Procedure: as §1

[3] = test system: Candida albicans (ATCC Accession No. 10231); experiment: MIC80 fungal growth inhibition, C. albicans ATCC 10231; type: cell-based; settings: Azole-susceptible, >80% growth inhibition, visual scoring; for MIC80: Candida albicans, ATCC10231, read-out: MIC80 C. albicans ATCC No. 10231
Procedure: as §1

protozoal proliferation = experiment: Protozoal proliferation; type: cell-based; settings: FIG. 27
[4] = test system: C. albicans clinical isolate 17 (TW17); experiment: MIC80 fungal growth inhibition, clinical isolate TW17; type: cell-based, Candida albicans; settings: for MIC80: Candida albicans, read-out: MIC80 TW17; for MIC80 / MIC80 TW17: Azole-resistant, >80% growth inhibition, visual scoring
Procedure: as §1

[5] = test system: Candida albicans ATCC Accession No. 10231; experiment: Checkerboard synergy assay with fluconazole; type: cell-based; settings: for FIC Fluc: average FIC of fluconazole at varying concentrations of the test drug; for FIC Test: average FIC of the test drug at varying concentrations of fluconazole; for Activity (interaction with fluconazole): from FIC index; for FIC Index: sum of the two FICs, <1 synergistic, >=1 antagonistic
Procedure: Considering that two different modes of activity (cidal and static) were observed depending on the structural motifs present in our analogs, we performed a series of checkerboard assays to determine if representative active compounds were in fact acting in synergy with the azole, fluconazole. Each of these assays tested multiple concentrations of the selected analog in the presence of multiple concentrations of fluconazole. All checkerboard assays were prepared in 96-well plates. 200 μl of previously prepared drug solutions were added to each well in column 2. Using a multichannel pipette, 100 μl from each well in column 2 was serially diluted (1:2) horizontally across the plate, stopping at column 10. Contents of each well were mixed thoroughly. Column 11 was reserved for fluconazole MIC control and contained no other drug. 100 μl of media was added to each well, column 2-10. Each well was mixed thoroughly with a multichannel pipette. 100 μl was then removed and discarded from these wells. 100 μl of previously prepared fluconazole dilution was added to each well in row B. Using a multichannel pipette, 100 μl from each well was serially diluted (1:2) vertically down the plate, stopping at row F. Contents of each well were mixed thoroughly. Row G was reserved for tested drug MIC control and contained no fluconazole. Well G11 contained neither drug and served as a drug-free growth control. The final 100 μl from each well in row F was discarded.
The fungal samples were prepared from glycerol stocks of Candida albicans ATCC Accession No. 10231. The inoculum's concentration was adjusted to a McFarland standard between 0.08 and 0.12. Inoculum was then diluted at a ratio of 1:37.5 in buffered media. 100 μl of inoculum-media solution was added to each well. Following inoculation, the 96-well plates were wrapped in parafilm to prevent evaporation and incubated for overnight at 35° C. After 18 h, the wells showing growth were recorded.
Synergistic activity was determined based on the MIC read from these plates. The fractional inhibitory concentration (FIC) for a given well is the ratio of the minimum inhibitory concentration of one drug A in the presence another drug B to the minimum inhibitory concentration with only drug A. The FIC was calculated for the test drug in each of the wells along the growth/no-growth interface at varying concentrations of fluconazole, then these values were averaged to determine the average FIC for the test drug. The same process was used to calculate the average FIC for fluconazole at varying concentrations of the test drug. The sum of these two FICs gives the FIC index which can be used to determine the synergistic effect between the two drugs (Hsieh et al., Diagn. Microbiol. Infect. Dis. (1993) 16: 343-349). An FIC index value less than 1 indicated synergistic interactions between the two drugs while an FIC index value greater than or equal to 1 indicated antagonistic interactions.

Candida strain TW17 = experiment: Time-kill assay; type: cell-based, Candida albicans; settings: four times the MIC for TW17, 48 h
Procedure: FIG. 9 illustrates time-kill assays, for representative analogs that were active against the azole-resistant TW17, to determine the cidal or static nature of the analog tested. 100 μl of each sample was spread onto YM agar plates with a sterile bent spreading rod. Plates were incubated at 35° C. overnight and colonies were then counted on each plate.
One of the objectives of this study was to determine the cidal or static nature of the analogs that were active against such as TW17, the azole-resistant clinical isolate. Azoles affect Candida spp. by inhibiting ergosterol biosynthesis, and ultimately prevent their reproduction. This effect has led to the classification of azoles as fungistats. Determining the fungistatic or fungicidal nature of the synthesized compounds of the present disclosure allows a comparison to azoles, in addition to improving the understanding of how the structural motifs might lend toward an alternate mechanism of action. Therefore, time-kill assays were performed using the representative analogs that were active against the azole-resistant TW17 at concentrations at or below 8 μg/mL.
Solid drugs were dissolved in DMSO to a concentration of 10 mg/ml. This stock solution was then further diluted in water to the desired experimental concentration, determined to be four times that of the MIC for the Candida strain TW17 (as reported in the Tables).
Individual colonies of TW17 were suspended in 5 ml of sterile water and adjusted to achieve a McFarland reading between 0.08 and 0.12. The inoculum was then further diluted in sterile water at a ratio of 1:100. Three […] tissue culture tubes were prepared by combining 2.5 ml of above diluted inoculum, 21.7 ml of HEPES buffered RPMI-1640 media, and 800 μl of experimental drug dilution. A “Growth Control” tube was prepared by combining 2.5 ml of inoculum, 21.7 HEPES buffered RPMI-1640 media, and 800 μl of water-DMSO solution equal to the DMSO concentration of the experimental drug dilution. A “Sterile Control” tube was prepared by combining 24.2 ml of HEPES-buffered RPMI-1640 media and 800 μl of water-DMSO solution as in the “Growth Control”. All tubes were incubated for 48 hours at 35° C., 50 rpm. 500 μl samples were taken from the tubes at time points of predetermined intervals during this incubation.
Time points for the “Kill-Curve” and “Growth Control” tubes were taken at 0, 1, 2, 4, 6, 8, 24, and 48 h after the start of incubation. Time points for “Sterile Control” were taken at 0 and 48 hours. Each time point sample was serially diluted 1:10 in sterile 0.9% NaCl solution up to 5 times. 100 μl of each sample was spread onto YM agar plates with a sterile bent spreading rod. Plates were incubated at 35° C. overnight and colonies were then counted on each plate. Colonies on plates from diluted time points were used to estimate uncountable undiluted samples. The number of colonies in undiluted samples was estimated to be 10^n times greater than the diluted sample, where n was the number of dilutions made.

Candida spp. = experiment: MIC studies, statements pooled over several isolates; type: cell-based, Candida albicans, Candida glabrata; settings: for antifungal activity (in words): overall over the isolates tested
Procedure: as §1

Vero (kidney) cells = experiment: Mammalian cell toxicity, Promega CellTiter 96, kidney cells; type: cell-based; settings: through 10× MIC, 24 h
Procedure: (§2) Cytotoxicity was determined using non-cancerous Vero cells (kidney-african green monkey) and liver cells (Hep-2G) in accordance with Promega CellTiter 96 Non-Radioactive Cell Proliferation Assay (cat # G4000). Compounds were diluted in media and all assays were done in triplicate. Average values are presented, with ±SD. Cells were incubated in the presence of the compounds for 24 h at 37° C. and 5% CO2. Tetrazolium dye solution was added to each well and allowed to incubate for 1-4 h. Solubilization/Stop solution was added and allowed to sit at room temperature for 1 h. Formazan product was scored spectrophotometrically with an automatic plate reader set at 570 nm. Positive control wells for cell death were briefly treated with 0.1% saponin, immediately prior to the addition of dye solution. Wells containing 1% DMSO and no drug were used as a negative control and the average absorbance at 570 nm were set to 100%. The percent of cells viable were calculated as a ratio between the average absorption at 570 nm of the drug containing wells/average absorption at 570 nm of the control (no drug). Ratios were multiplied by 100 to give the values as a percentage as expressed on the y-axis.
(§3) Cytotoxicity studies were performed in accordance with Promega CellTiter 96 Non-RadioactivCell Proliferation Assay (cat #G4000). All cytotoxicity studies used a negative control (wells of either kidney or liver cells containing 1% DMSO but lacking the analog), a positive control (wells of either kidney or liver cells treated with the known cytotoxic agent, saponin) and the serial dilutions of the novel analogs. All control (negative) wells were normalized to 100% viable cells to accurately show the percentage of either liver or kidney cells that remained alive and viable following either overnight incubation with the analogs or 5-minute treatment with 0.1% saponin.

Hep G2 (liver) cells = experiment: Mammalian cell toxicity, Promega CellTiter 96, liver cells; type: cell-based; settings: through 10× MIC, 24 h
Procedure: as §2, §3

| MIC80 C. glabrata ATCC No. 48435 [1] [µg/mL] | MIC80 TW1 [2] [µg/mL] | MIC80 C. albicans ATCC No. 10231 [3] [µg/mL] | MIC80 TW17 [4] [µg/mL] | SMILES | MIC80 [1] [µg/mL] | MIC80 [2] [µg/mL] | effect on protozoal proliferation (protozoal proliferation) | MIC80 [4] [µg/mL] | other results |
| --- | --- | --- | --- | --- | --- | --- | --- | --- | --- |
| – | – | – | – | O=C(N/N=C/c1cc(Cl)ccc1O)c1ccccn1 [AR4, (E)-N′-(5-Chloro-2-hydroxybenzylidene)picolinohydrazide] | 1 (≈ 3.63 µM) | 4 (≈ 14.5 µM) | reduce protozoal proliferation | 8 (≈ 29 µM) | MIC80 [3]: 1 µg/mL (≈ 3.63 µM) |
| – | – | – | – | O=C(N/N=C/c1cc(Br)ccc1O)c1ccccn1 [AR5, (E)-N′-(5-bromo-2-hydroxybenzylidene)picolinohydrazide] | 4 (≈ 12.5 µM) | 2 (≈ 6.25 µM) | reduce protozoal proliferation | 4 (≈ 12.5 µM) | FIC Fluc [5]: 1.00; FIC Test [5]: 0.90; Activity (interaction with fluconazole) [5]: Antagonistic; FIC Index [5]: 1.90; Cidal vs Static (Candida strain TW17): fungicidal; also recorded: Cidal; MIC80 [3]: 1 µg/mL (≈ 3.12 µM) |
| 8 (≈ 31.3 µM) | 16 (≈ 62.7 µM) | 4 (≈ 15.7 µM) | – | Cc1ccc(O)c(/C=N/NC(=O)c2cccnc2)c1 [AR8] | – | – | – | – | activity against azole-resistant isolates (in words) (Candida spp.; azole-resistant isolates): less active |
| – | – | – | – | O=C(N/N=C/c1ccccc1O)c1cccnc1O [AR19] | 1 (≈ 3.89 µM) | 4 (≈ 15.5 µM) | – | 4 (≈ 15.5 µM) | cell toxicity (Vero (kidney) cells): minimal toxicity; cell toxicity (Hep G2 (liver) cells): minimal toxicity; growth inhibition (in words) (Candida spp.; across all Candida albicans isolates): growth inhibition was observed at very low concentrations |
| 4 (≈ 13.2 µM) | 4 (≈ 13.2 µM) | 8 (≈ 26.5 µM) | 2 (≈ 6.62 µM) | O=C(N/N=C/c1cc([N+](=O)[O-])ccc1O)c1ccc[n+]([O-])c1 [AR28] | – | – | – | – | FIC Fluc [5]: 1.00; FIC Test [5]: 1.00; Activity (interaction with fluconazole) [5]: Antagonistic; FIC Index [5]: 2.00; Cidal vs Static (Candida strain TW17): Static; activity against azole-resistant TW17 [4]: 2 µM |
| 31 (≈ 157 µM) | 16 (≈ 81.1 µM) | 16 (≈ 81.1 µM) | 16 (≈ 81.1 µM) | C(=NNc1ccccc1)c1ccccn1 [AR29] | – | – | – | – | antifungal activity (in words) (Candida spp.): moderate activity |
| 16 (≈ 70.7 µM) | 16 (≈ 70.7 µM) | 31 (≈ 137 µM) | 16 (≈ 70.7 µM) | O=C(NN=Cc1ccccn1)c1ccccn1 [AR34] | – | – | – | – | antifungal activity (in words) (Candida spp.): moderate activity |
| – | – | – | – | O=C(N/N=C/c1cc([N+](=O)[O-])ccc1O)c1ccncc1 [SA113] | – | – | reduce protozoal proliferation | – | – |
